Data published in patent publication US20070197453A1, “Compositions and methods for treatment of disorders of protein aggregation” (priority 2006, published 2007).
“Also recorded” adds a separate entry of the source. Marks after values point to notes of the source that are not given here.

What was measured:
TgCRND8 mice [1] = assay: Morris Water Maze spatial reference memory test; type: in vivo, mouse
Protocol: (§1) Behavioural tests: Morris Water Maze testing was performed as previously described. After non-spatial pre-training, mice underwent place discrimination training for 5 days with 4-trials per day, followed by a cued visible platform to rule out general motivational, learning deficits and motor problems, and a probe trial to evaluate memory. […] Open field test for motor activity was preformed as described previously. Duration of walking, pausing and grooming were analyzed as indices of spontaneous locomotor activity. Sensorimotor function was examined with an Economex™ accelerating rotarod (Columbus Instruments, Columbus, Ohio), as described elsewhere. The rod was set to accelerate at a rate of 0.2 r.p.m./s, from an initial, constant speed of 5 r.p.m. Latency to fall was recorded in four daily trials, conducted at 30 min intervals. All mice were trained for seven days before testing. The test day performance score for each animal was obtained by summing its latency to fall over the four trials
Behavioural tests: Behavioural analyses were performed using the Morris Water Maze test (13, 14). After pre-spatial training, mice underwent place discrimination training for 5 days with 4 trials per day, followed by a cued visible platform to rule out general motivational, learning deficits and motor problems. […] Open field test for motor activity was performed as described previously. Duration of walking, pausing, rearing and grooming were analyzed as indices of spontaneous locomotor activity.

Aβ40 = target: T1, Aβ40 (Homo sapiens, UniProt P05067); assay: Cerebral Aβ content: brain Aβ40 (ELISA kit); type: in vivo, mouse; settings: TgCRND8 mice with pre-existing disease; 28 day treatment from 5 months of age
T1 construct: from tissue; host or cells: hemi-brain homogenate of TgCRND8 transgenic mice
T1 sequence (P05067 672-711): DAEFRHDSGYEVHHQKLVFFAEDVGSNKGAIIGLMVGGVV
Protocol: (§2) Plasma and Cerebral Aβ Content. Hemi-brain samples were homogenized in a buffered sucrose solution, followed by either 0.4% diethylamine/100 mM NaCl for soluble Aβ levels or cold formic acid for the isolation of total Aβ. After neutralization, the samples were diluted and analyzed for Aβ40 and Aβ42 using commercially available kits (BIOSOURCE International). Each hemisphere was analyzed in triplicate and the mean values±SEM reported. Western blot analyses were performed on all fractions using urea gels for Aβ species analyses. Aβ was detected using 6E10 (BIOSOURCE International) and Enhanced Chemiluminenscence (Amersham).
(§3) Cerebral Aβ Content. Hemi-brain samples were homogenized in a buffered sucrose solution, followed by either 0.4% diethylamine/100 mM NaCl for soluble Aβ levels or cold formic acid for the isolation of total Aβ [22]. After neutralization the samples were diluted and analyzed for Aβ40 and Aβ42 using commercially available kits (BIOSOURCE International). Each hemisphere was analyzed in triplicate with the mean±SEM reported. Plasma was diluted and run directly on the ELISA.

TgCRND8 mice [2] = assay: Cerebral amyloid plaque burden (anti-Aβ immunostaining, image analysis); type: in vivo, mouse
Protocol: (§4) Cerebral amyloid burden. Brains were removed and one hemisphere was fixed in 4% paraformaldehyde and embedded in paraffin wax in the mid sagittal plane. To generate sets of systematic uniform random sections, 5 μm serial sections were collected across the entire hemisphere. Sets of sections at 50 μm intervals were used for analyses (10-14 sections/set). Plaques were identified after antigen retrieval with formic acid, and incubation with primary anti-Aβ antibody (Dako M-0872), followed by secondary antibody (Dako StreptABCcomplex/horseradish kit). End products were visualized with DAB and were counter-stained with luxol fast blue. Amyloid plaque burden was assessed with Leco IA-3001 image analysis software interfaced with Leica microscope and Hitachi KP-M1U CCD video camera. Openlab imaging software (Improvision, Lexington, Mass.) was then used to convert micrographs to binary images for plaque number and plaque area determinations. Vascular amyloid burden was defined as amyloid originating from or surrounding blood vessels and was analysed similarly.

TgCRND8 mice [3] = assay: Vascular amyloid burden; type: in vivo, mouse; settings: compared to untreated and epi-inositol treated
Protocol: as §4

[4] = tested on: LTP in mouse hippocampal slices; assay: Long term potentiation in hippocampal slices with 7PA2 conditioned medium; type: cell-based; settings: compound treated culture media from plain CHO cells
Protocol: Long Term Potentiation. […] Swiss Webster mice between the ages of P16 and P26 were anesthetized with isoflurane. […] The hippocampus from each hemisphere was isolated and 350 μm coronal sections were made. […] Once placed in the chamber, slices were continuously perfused by a closed loop containing 15 ml of ACSF to conserve the oligomeric Aβ. […] A bipolar stimulating electrode (World Precision Inst.) was placed in the Schaffer collaterals to deliver baseline stimuli and tetani. A borosilicate glass recording electrode (2-4 MΩ) containing ACSF was positioned approximately 75-200 μm from the stimulating electrode. […] Test stimuli were delivered at 0.05 Hz. To induce LTP, 4 tetani (100 Hz for 1 second) were delivered 5 minutes apart. Field potential responses were amplified 10× using an Axopatch 200B. The data was sampled at 10 kHz and filtered at 2 kHz. Traces were analyzed using pClamp 9.2. The slope of the field potential was estimated using approximately 10-60% of the total response.

TgTauP301L mice = assay: Synaptophysin reactivity in TgTauP301L mice; type: in vivo, mouse; settings: TgTauP301L mice after treatment
Protocol: Synaptophysin immunohistochemical staining was performed on 3 evenly spaced saggital sections of paraformaldehyde-fixed treated and control mice. Sections were immunolabelled for synaptophysin with anti-synaptophysin IgG (1:40; Roche, Laval, PQ). Digital images were captured and analyzed as described above. Within each section, three randomly chosen 100 μm^2 areas of the CA1 region of the hippocampus were counted for synaptophysin reactive cell bodies and boutons. The results are expressed as the mean of the number of reactive bodies and boutons per 100 μm^2 [29, 30].

TgCRND8 mice [5] = assay: Gliosis quantitation (GFAP astrocytes, CD68 microglia); type: in vivo, mouse
Protocol: Gliosis Quantitation. Five randomly selected, evenly spaced, sagittal sections were collected from paraformaldehyde-fixed and frozen hemispheres of treated and control mice. Sections were immunolabelled for astrocytes with anti-rat GFAP IgG2a (Dako; diluted 1:50) and for microglia with anti-rat CD68 IgG2b (Dako; 1:50). Digital images were captured using a Coolsnap digital camera (Photometrics, Tuscon, Ariz.) mounted to a Zeiss, Axioscope 2 Plus microscope. Images were analysed using Openlab 3.08 imaging software (Improvision, Lexington Mass.).

TgCRND8 mice [6] = assay: Survival census (Kaplan-Meier); type: in vivo, mouse; settings: compared to untreated TgCRND8 mice
Protocol: (§5) Survival Census: The probability of survival was assessed by the Kaplan-Meier technique, computing the probability of survival at every occurrence of death, thus making it suitable for small sample sizes. For the analyses of survival, 35 mice were used for each treatment group. The Tarone-Ware test was used to assess effects of treatments.
as §5, with “technique” for “technique,”, “30” for “35”

TgCRND8 mice [7] = assay: Accelerating rotarod sensorimotor function; type: in vivo, mouse; settings: treated versus untreated TgCRND8 mice
Protocol: as §1

Aβ42 [8] = target: T2, Aβ42 (Homo sapiens, UniProt P05067); assay: Plasma Aβ42 levels; type: in vivo, mouse; parameters: from tissue; host or cells: plasma of TgCRND8 transgenic mice; settings: TgCRND8 mice following 28 days of therapy at five months of age
Protocol: as §2, §3
Target sequence in this assay (P05067 672-713): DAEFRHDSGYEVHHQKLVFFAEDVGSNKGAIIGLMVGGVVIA

Aβ42 [9] = target: T2, Aβ42; assay: Cerebral Aβ content: brain Aβ42 (ELISA kit); type: in vivo, mouse; parameters: from tissue; host or cells: hemi-brain homogenate of TgCRND8 transgenic mice; settings: TgCRND8 mice with pre-existing disease; 28 day treatment from 5 months of age
Protocol: as §2, §3
Target sequence in this assay (P05067 672-713 limits assumed): as the sequence (P05067 672-713) above

[10] = six month old TgCRND8 mice, 28 days of oral treatment beginning at five months of age
[11] = TgCRND8 mice, 4-month Prophylactic (oral from 6 weeks to 4 months of age)
[12] = TgCRND8 mice, 6-month Prophylactic (oral from 6 weeks to 6 months of age)
[13] = TgCRND8 mice, 28 day course at 5 months of age, vs untreated
[14] = TgCRND8 mice, oral treatment for 28 days (1 month) from 5 months of age, analysed at 6 months

Compound: O[C@H]1[C@H](O)[C@@H](O)[C@H](O)[C@@H](O)[C@@H]1O [scyllo-cyclohexanehexol, 1,3,5/2,4,6-(scyllo-)cyclohexanehexol]
- effects on cognition and pathology (TgCRND8 mice [1]; TgCRND8 mice, administered for 2 months, ending at 7 months of age): Sustained effects both on cognition and pathology were observed
- Non-Tg littermate behaviour under treatment (TgCRND8 mice [1]; mouse, in vivo): not affected
- cognition compared to non-Tg mice (TgCRND8 mice [1]; prophylactic treatment, four months of age): approached that of non-Tg mice
- probe trial, % time in target quadrant (TgCRND8 mice [1]; separate cohort of TgCRND8 mice, compared to non-Tg littermates, data not shown): not statistically different from non-Tg littermates
- spatial reference memory performance compared to non-Tg littermates (TgCRND8 mice [1]; [10]): indistinguishable from that of their non-Tg littermates
- spatial reference memory performance compared to untreated TgCRND8 littermates (TgCRND8 mice [1]; [10]): significantly better behavioural performance compared to untreated TgCRND8 mice; also recorded: significantly better than untreated TgCRND8 littermates
- effect on brain Aβ40 levels (Aβ40): reduced brain levels of Aβ40 and Aβ42
- amyloid (plaque) burden, immunostaining (TgCRND8 mice [2]; TgCRND8 mice at six months of age, hippocampus and cerebral cortex): significantly decreased amyloid burden and gliosis
- plaque burden (percent area of the brain covered with plaques, plaque number) (TgCRND8 mice [2]; TgCRND8 mice with pre-existing disease, one month treatment from 5 months of age): lower plaque burden
- Mean Plaque Size (TgCRND8 mice [2]; [11]): 103 ± 4* μm^2
- Total Plaque Area (TgCRND8 mice [2]; [11]): 63847 ± 2895 μm^2
- Mean Plaque Size (TgCRND8 mice [2]; [12]): 339 ± 10† μm^2
- Total Plaque Area (TgCRND8 mice [2]; [12]): 262379 ± 5373† μm^2
- percent area of the brain covered by plaques reduction (TgCRND8 mice [2]; [13]): 14±0.5%
- plaque number reduction (TgCRND8 mice [2]; [13]): 13±0.3%
- plaque size reduction (TgCRND8 mice [2]; [13]): 16±0.4%
- Mean Plaque Size (TgCRND8 mice [2]; [14]): 336 ± 6* μm^2
- Total Plaque Area (TgCRND8 mice [2]; [14]): 420027 ± 14986* μm^2
- total vascular Aβ load (TgCRND8 mice [3]): significantly decreased the total vascular load
- direct effect on LTP [4]: no direct effect on LTP
- synaptophysin reactivity (TgTauP301L mice): unchanged
- percent brain area covered with microgliosis (TgCRND8 mice [5]; TgCRND8 mice): decreased the percent brain area covered with microgliosis
- astrogliosis / gliosis, anti-GFAP immunostaining (TgCRND8 mice [5]; TgCRND8 mice at six months of age): significantly decreased amyloid burden and gliosis
- percent brain area covered in astrogliosis (TgCRND8 mice [5]; TgCRND8 mice, 4- and 6-months of age): decreased the astrogliotic response to a greater extent at both ages
- Kaplan Meier cumulative survival (TgCRND8 mice [6]): increased survival
- Rotarod sensorimotor function (TgCRND8 mice [7]): no difference
- Plasma Aβ42 levels (Aβ42 [8]): 990 ± 73 pg/mL
- effect on brain Aβ42 levels (Aβ42 [9]): reduced brain levels of Aβ40 and Aβ42
